From patent US10683292B2, “Purine and 3-deazapurine analogues as choline kinase inhibitors” (NERVIANO MEDICAL SCIENCES S.R.L., priority 2016, dated 2020)

Assays:
hChoKβ FL = biological target: T1, hChoKβ FL (Homo sapiens, UniProt Q9Y259); test: Biochemical kinase inhibition assay (Kinase-Glo Luminescent Kinase Assay) on hChoKβ FL; conditions: ATP 5 μM, choline 20 μM, 60 minutes at rt; read-out: IC50 ChoKβ
T1 construct: hChoKβ full length (FL), corresponding to aminoacids 2-395; GST (N, cleaved yes); Prescission Protease recognition site (N, cleaved yes); made in house; host or cells: Escherichia coli BL21pLysS (DE3)
T1 sequence (Q9Y259 2-395): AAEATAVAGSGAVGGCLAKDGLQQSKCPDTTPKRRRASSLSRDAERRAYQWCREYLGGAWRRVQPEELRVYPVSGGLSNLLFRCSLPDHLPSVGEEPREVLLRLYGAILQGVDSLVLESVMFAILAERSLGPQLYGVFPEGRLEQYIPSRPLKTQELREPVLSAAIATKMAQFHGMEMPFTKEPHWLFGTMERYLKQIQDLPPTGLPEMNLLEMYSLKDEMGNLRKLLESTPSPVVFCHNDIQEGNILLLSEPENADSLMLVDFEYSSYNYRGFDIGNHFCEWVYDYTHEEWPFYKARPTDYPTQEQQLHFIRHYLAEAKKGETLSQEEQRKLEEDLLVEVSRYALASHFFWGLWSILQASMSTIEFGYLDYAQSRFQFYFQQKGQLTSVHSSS
Procedure: (§1) The biochemical activity of compounds against Δ49N-ChoKα and ChoKβ FL were determined using the Kinase-Glo™ Luminescent Kinase Assay (Promega cat. V6711).
(§2) Compounds were 3-fold serially diluted from 10 to 0.0005 μM, then incubated for 60 minutes at rt in the presence of ATP 5 μM, choline (5 μM for ChoKα and 20 μM for ChoKβ) and enzyme in a final volume of 19 μL of kinase buffer (50 mM Hepes pH 7.5, 10 mM MgCl2, 1 mM DTT, 3 μM Na3VO4 and 0.2 mg/mL BSA). The final concentration of DMSO was 1%.
(§3) At the end of the incubation, an amount of 19 μL of KinaseGlo Reagent was added to each well to stop the reaction and after 30 minutes the luminescence signal was measured using ViewLux reader (Perkin Elmer).
(§4) The data per each molecule are analyzed by an internally customized version of the SW package “Assay Explorer” which provides sigmoidal fittings of the ten-dilution curves for IC50 determination using a 4 parameter logistic equation: y=bottom+(top−bottom)/(1+10^((log IC50−x)*slope)) where x is the logarithm of the inhibitor concentration, y is the response; y starts at bottom and goes to top with a sigmoid shape.

Δ49N-hChoKα = biological target: T2, Δ49N-hChoKα (Homo sapiens, UniProt P35790); test: Biochemical kinase inhibition assay (Kinase-Glo Luminescent Kinase Assay) on Δ49N-hChoKα; conditions: ATP 5 μM, choline 5 μM, 60 minutes at rt; read-out: IC50 ChoKα
T2 construct: cDNA fragment 362-1534, corresponding to aminoacids 50-457; GST (N, cleaved yes); Prescission Protease recognition site (N, cleaved yes); made in house; host or cells: Escherichia coli BL21pLysS (DE3)
T2 sequence (P35790 50-457, stated change not applied): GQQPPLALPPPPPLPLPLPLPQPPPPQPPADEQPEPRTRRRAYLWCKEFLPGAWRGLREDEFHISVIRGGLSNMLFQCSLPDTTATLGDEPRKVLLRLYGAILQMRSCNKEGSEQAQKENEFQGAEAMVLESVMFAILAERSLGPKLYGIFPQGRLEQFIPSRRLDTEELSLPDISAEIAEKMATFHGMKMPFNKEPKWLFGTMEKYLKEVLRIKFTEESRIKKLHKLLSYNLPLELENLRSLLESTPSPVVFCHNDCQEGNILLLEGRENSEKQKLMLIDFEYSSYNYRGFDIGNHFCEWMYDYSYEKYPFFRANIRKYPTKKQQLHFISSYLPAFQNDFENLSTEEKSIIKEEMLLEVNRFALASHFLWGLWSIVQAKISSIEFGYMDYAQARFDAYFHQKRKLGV
Procedure: as §1, §2, §3, §4

SMILES | IC50 (hChoKβ FL) [µM] | IC50 (Δ49N-hChoKα) [nM]
COc1cccc(NC(=O)[C@H]2CC[C@@H](n3cnc4c(N)nc(-c5ccncc5)nc43)CC2)c1 [cpd 9, cis-4-[6-amino-2-(pyridin-4-yl)-9H-purin-9-yl]-N-(3-methoxyphenyl)cyclohexanecarboxamide] | > 10 | 
COc1cccc(NC(=O)[C@H]2CC[C@@H](n3cnc4c(N)nc(-c5ccnc(F)c5)nc43)CC2)c1 [cpd 15, cis-4-[6-amino-2-(2-fluoropyridin-4-yl)-9H-purin-9-yl]-N-(3-methoxyphenyl)cyclohexanecarboxamide] |  | 419
COc1cccc(NC(=O)[C@H]2CC[C@@H](n3cnc4c(N)nc(-c5ccc(F)nc5)nc43)CC2)c1 [cpd 19, cis-4-[6-amino-2-(6-fluoropyridin-3-yl)-9H-purin-9-yl]-N-(3-methoxyphenyl)cyclohexanecarboxamide] |  | 795
COc1cccc(NC(=O)[C@H]2CC[C@@H](n3cnc4c(N)nc(-c5ccnc(OC)c5)nc43)CC2)c1 [cpd 21, cis-4-[6-amino-2-(2-methoxypyridin-4-yl)-9H-purin-9-yl]-N-(3-methoxyphenyl)cyclohexanecarboxamide] |  | 883
COc1cccc(NC(=O)[C@H]2CC[C@@H](n3cnc4c(N)nc(-c5ccc(C(=O)Nc6ccc(CN7CCN(C)CC7)cc6)cc5)nc43)CC2)c1 [cpd 29, 4-(6-amino-9-{cis-4-[(3-methoxyphenyl)carbamoyl]cyclohexyl}-9H-purin-2-yl)-N-{4-[(4-methylpiperazin-1-yl)methyl]phenyl}benzamide] | 1.88 | 257
COc1cccc(NC(=O)[C@H]2CC[C@@H](n3cnc4c(N)nc(-c5cccc(C(=O)Nc6ccc(CN7CCN(C)CC7)cc6)c5)nc43)CC2)c1 [cpd 30, 3-(6-amino-9-{cis-4-[(3-methoxyphenyl)carbamoyl]cyclohexyl}-9H-purin-2-yl)-N-{4-[(4-methylpiperazin-1-yl)methyl]phenyl}benzamide] | > 10 | 305
COc1cccc(NC(=O)[C@H]2CC[C@@H](n3cnc4c(N)nc(-c5cccc(C(=O)Nc6ccc(CN7CCC(N(C)C)CC7)cc6)c5)nc43)CC2)c1 [cpd 31, 3-(6-amino-9-{cis-4-[(3-methoxyphenyl)carbamoyl]cyclohexyl}-9H-purin-2-yl)-N-(4-{[4-(dimethylamino)piperidin-1-yl]methyl}phenyl)benzamide] | > 10 | 40
COc1cccc(NC(=O)[C@H]2CC[C@@H](n3cnc4c(N)nc(-c5ccc(C(=O)Nc6ccc(CN7CCC(N(C)C)CC7)cc6)cc5)nc43)CC2)c1 [cpd 33, 4-(6-amino-9-{cis-4-[(3-methoxyphenyl)carbamoyl]cyclohexyl}-9H-purin-2-yl)-N-(4-{[4-(dimethylamino)piperidin-1-yl]methyl}phenyl)benzamide] | 4.57 | 21
CN1CCN(Cc2ccc(NC(=O)Cc3ccc(NC(=O)[C@H]4CC[C@@H](n5cnc6c(N)nc(Cl)nc65)CC4)cc3)cc2C(F)(F)F)CC1 [cpd 35, cis-4-(6-amino-2-chloro-9H-purin-9-yl)-N-{4-[2-({4-[(4-methylpiperazin-1-yl)methyl]-3-(trifluoromethyl)phenyl}amino)-2-oxoethyl]phenyl}cyclohexanecarboxamide] | 0.43 | 13
CN1CCN(Cc2ccc(NC(=O)Cc3ccc(NC(=O)[C@H]4CC[C@@H](n5cnc6c(N)nc(Cl)nc65)CC4)cc3)cc2)CC1 [cpd 36, cis-4-(6-amino-2-chloro-9H-purin-9-yl)-N-{4-[2-({4-[(4-methylpiperazin-1-yl)methyl]phenyl}amino)-2-oxoethyl]phenyl}cyclohexanecarboxamide] | 1.35 | 53
COc1ccc(NC(=O)[C@H]2CC[C@@H](n3cnc4c(N)nc(-c5ccncc5)nc43)CC2)cc1OC [cpd 37, cis-4-[6-amino-2-(pyridin-4-yl)-9H-purin-9-yl]-N-(3,4-dimethoxyphenyl)cyclohexanecarboxamide] | > 10 | 844
COc1cccc(NC(=O)[C@H]2CC[C@@H](n3cnc4c(N)nc(I)nc43)CC2)c1 [cpd 41, cis-4-(6-amino-2-iodo-9H-purin-9-yl)-N-(3-methoxyphenyl)cyclohexanecarboxamide] | > 10 | 441
C#Cc1nc(N)c2ncn([C@H]3CC[C@@H](C(=O)Nc4cccc(OC)c4)CC3)c2n1 [cpd 45, cis-4-(6-amino-2-ethynyl-9H-purin-9-yl)-N-(3-methoxyphenyl)cyclohexanecarboxamide] | 4.98 | 195
Cc1cccc(NC(=O)[C@H]2CC[C@@H](n3cnc4c(N)nc(Cl)nc43)CC2)c1 [cpd 48, cis-4-(6-amino-2-chloro-9H-purin-9-yl)-N-(3-methylphenyl)cyclohexanecarboxamide] | > 10 | 283
Cc1cccc(NC(=O)[C@H]2CC[C@@H](n3cnc4c(N)nc(-c5ccncc5)nc43)CC2)c1 [cpd 50, cis-4-[6-amino-2-(pyridin-4-yl)-9H-purin-9-yl]-N-(3-methylphenyl)cyclohexanecarboxamide] | > 10 | 311
Nc1nc(Cl)nc2c1ncn2[C@H]1CC[C@@H](C(N)=O)CC1 [cpd 53, cis-4-(6-amino-2-chloro-9H-purin-9-yl)cyclohexanecarboxamide] | > 10 | 855
COc1cccc(NC(=O)[C@H]2CC[C@@H](n3cnc4c(N)nc(C#CCO)nc43)CC2)c1 [cpd 60, cis-4-[6-amino-2-(3-hydroxyprop-1-yn-1-yl)-9H-purin-9-yl]-N-(3-methoxyphenyl)cyclohexanecarboxamide] | > 10 | 854
Nc1nc(Cl)nc2c1ncn2[C@H]1CC[C@@H](C(=O)Nc2nnc(C(F)(F)F)s2)CC1 [cpd 64, cis-4-(6-amino-2-chloro-9H-purin-9-yl)-N-[5-(trifluoromethyl)-1,3,4-thiadiazol-2-yl]cyclohexanecarboxamide] | > 10 | 196
Cc1csc(NC(=O)[C@H]2CC[C@@H](n3cnc4c(N)nc(I)nc43)CC2)n1 [cpd 70, cis-4-(6-amino-2-iodo-9H-purin-9-yl)-N-(4-methyl-1,3-thiazol-2-yl)cyclohexanecarboxamide] | > 10 | 34
Nc1nc(Cl)nc2c1ncn2[C@H]1CC[C@@H](C(=O)Nc2ccc(C(=O)NC3CCCCC3)cc2)CC1 [cpd 71, 4-({[cis-4-(6-amino-2-chloro-9H-purin-9-yl)cyclohexyl]carbonyl}amino)-N-cyclohexylbenzamide] | 2.84 | 375
Nc1nc(Cl)nc2c1ncn2[C@H]1CC[C@@H](C(=O)Nc2nccs2)CC1 [cpd 72, cis-4-(6-amino-2-chloro-9H-purin-9-yl)-N-(1,3-thiazol-2-yl)cyclohexanecarboxamide] | > 10 | 61
C#Cc1nc(N)c2ncn([C@H]3CC[C@@H](C(=O)Nc4nc(C)cs4)CC3)c2n1 [cpd 77, cis-4-(6-amino-2-ethynyl-9H-purin-9-yl)-N-(4-methyl-1,3-thiazol-2-yl)cyclohexanecarboxamide] | 5.97 | 18
Cc1csc(NC(=O)[C@H]2CC[C@@H](n3cnc4c(N)nc(-c5ccncc5)nc43)CC2)n1 [cpd 81, cis-4-[6-amino-2-(pyridin-4-yl)-9H-purin-9-yl]-N-(4-methyl-1,3-thiazol-2-yl)cyclohexanecarboxamide] | > 10 | 125
COc1cccc(NC(=O)[C@H]2CC[C@@H](n3cnc4c(N)nc(OC)nc43)CC2)c1 [cpd 83, cis-4-(6-amino-2-methoxy-9H-purin-9-yl)-N-(3-methoxyphenyl)cyclohexanecarboxamide] | > 10 | 425
COc1nc(N)c2ncn([C@H]3CC[C@@H](C(=O)Nc4nc(C)cs4)CC3)c2n1 [cpd 84, cis-4-(6-amino-2-methoxy-9H-purin-9-yl)-N-(4-methyl-1,3-thiazol-2-yl)cyclohexanecarboxamide] | > 10 | 86
COc1cccc2sc(NC(=O)[C@H]3CC[C@@H](n4cnc5c(N)nc(Cl)nc54)CC3)nc12 [cpd 91, cis-4-(6-amino-2-chloro-9H-purin-9-yl)-N-(4-methoxy-1,3-benzothiazol-2-yl)cyclohexanecarboxamide] | 7.38 | 
COc1ccc2nc(NC(=O)[C@H]3CC[C@@H](n4cnc5c(N)nc(Cl)nc54)CC3)sc2c1 [cpd 92, cis-4-(6-amino-2-chloro-9H-purin-9-yl)-N-(6-methoxy-1,3-benzothiazol-2-yl)cyclohexanecarboxamide] | 5.03 | 
NC(=O)Cc1ccc2nc(NC(=O)[C@H]3CC[C@@H](n4cnc5c(N)nc(Cl)nc54)CC3)sc2c1 [cpd 177, cis-4-(6-amino-2-chloro-9H-purin-9-yl)-N-[6-(2-amino-2-oxoethyl)-1,3-benzothiazol-2-yl]cyclohexanecarboxamide] | 3.81 | 
Nc1nc(Cl)nc2c1ncn2[C@H]1CC[C@@H](C(=O)Nc2nc3c(s2)CN(C2CC2)CC3)CC1 [cpd 184, cis-4-(6-amino-2-chloro-9H-purin-9-yl)-N-(5-cyclopropyl-4,5,6,7-tetrahydro[1,3]thiazolo[5,4-c]pyridin-2-yl)cyclohexanecarboxamide] | 6.71 | 
CC1(C)Cc2nc(NC(=O)[C@H]3CC[C@@H](n4cnc5c(N)nc(F)nc54)CC3)sc2C(C)(C)N1 [cpd 190, cis-4-(6-amino-2-fluoro-9H-purin-9-yl)-N-(4,4,6,6-tetramethyl-4,5,6,7-tetrahydro[1,3]thiazolo[5,4-c]pyridin-2-yl)cyclohexanecarboxamide] | > 10 | 
